Test results as given in patent US12144896B2, “Drug delivery system” (INSERM (INSTITUT NATIONAL DE LA SANTÉ ET DE LA RECHERCHE …, priority 2018, dated 2024).
Values joined by “and” are separate entries in the source; they are usually repeats but may differ in a detail not shown here. Equal values may be shown once.

Tests used:
B6KPC3 cells = test: MTS cell viability test on B6KPC3 cells; type: cell-based; conditions: B6KPC3, 24 h incubation at 37° C., 0-200 μM
Method: 3.5×10^3 B6KPC3 and A549 cells and 7.5×10^3 HT-29 cells were seeded into 96-well plates. […] After 24 h, cell viability was evaluated through MTS Cell Proliferation Colorimetric Assay Kit (Novus Biologicals, Abingdon, UK). Briefly, medium was removed, and 100 μL of MTS solution diluted 1:10 in serum-free medium were added in each well. In preliminary experiments the time of exposure to MTS (1 h for HT-29 and 3 h for A549 cells) was determined according to the metabolism of each cell type. Absorbance was measured at 492 nm with a microplate reader (EnSpire® Multimode Plate Reader, Perkin Elmer, Boston, Mass., USA).
Cell viability (CV) percentage was evaluated through the following formula: CV (%)=(Absorbance(treated wells))/(Absorbance(control wells))×100 with Absorbance (control wells) considered the absorbance of untreated cells incubated in medium without drugs. G.3 Results for Viability Studies on HT-29, A549 and B6KPC3 Cells: MTS Test
Oxaliplatin, DACHPt, and Blank nanoparticles are thus used as controls. Viability was then evaluated with the MTS assay (see Material and Methods). Data were expressed as % of control (untreated cells). Data are means±SD of two experiments with 3 determinations each.

HT-29 cells = test: MTS cell viability test on HT-29 cells; type: cell-based, Human; conditions: HT-29, 24 h incubation at 37° C., 0-200 μM
Method: (§1) Human lung alveolar carcinoma A549 cells, provided by Prof. L. Migliore, University of Pisa, were grown in Ham's F12 medium supplemented with 10% Fetal Bovine Serum (FBS), 1 mM Gln, and antibiotics. Human colorectal adenocarcinoma HT-29 cells, provided by Prof. P. Petronini, University of Parma, were grown in DMEM High (glucose 4.5 g/1) supplemented with 10% FBS, 2 mM Gln and antibiotics. Cells were incubated at 37° C. at 5% CO2; after thawing, all cells were used for less than ten passages.
(§2) 3.5×10^3 B6KPC3 and A549 cells and 7.5×10^3 HT-29 cells were seeded into 96-well plates. […] After 24 h, cell viability was evaluated through MTS Cell Proliferation Colorimetric Assay Kit (Novus Biologicals, Abingdon, UK). […] In preliminary experiments the time of exposure to MTS (1 h for HT-29 and 3 h for A549 cells) was determined according to the metabolism of each cell type. Absorbance was measured at 492 nm with a microplate reader (EnSpire® Multimode Plate Reader, Perkin Elmer, Boston, Mass., USA).
(§3) Cell viability (CV) percentage was evaluated through the following formula: CV (%)=(Absorbance(treated wells))/(Absorbance(control wells))×100 with Absorbance (control wells) considered the absorbance of untreated cells incubated in medium without drugs. […]
(§4) Oxaliplatin, DACHPt, and Blank nanoparticles are thus used as controls. Viability was then evaluated with the MTS assay (see Material and Methods). […]

[1] = Pharmacokinetics after IV bolus injection, two-compartment analysis of plasma Pt; conditions: mice, 35 μg Pt/mice
Method: At specific time points, 15, 30 min, 1, 1.5, 3, 5, 8 and 12 h post dose, 200 μl of blood was taken and separated from plasma. Pt content was detected using ICP/MS.
A first-order, two-compartment model with bolus administration, expressed in terms of CL and V was applied to fit the data, using 1/yhat^2 as weighting function.
Based on the profile obtained (FIGS. 3A and 3B), the data were analyzed using a two-compartmental model.

A549 cells = test: MTS cell viability test on A549 cells; type: cell-based, Human; conditions: A549, 24 h incubation at 37° C., 0-200 μM
Method: as §1, §2, §3, §4

[2] = test system: multicellular HT116 spheroids; test: Multicellular tumor spheroid (MCTS) volume follow-up; type: cell-based
From the text: Multi cellular tumor spheroids (MCTS) were formed according to a previous published method [Virgone-Carlotta A, Lemasson M, Mertani H C, et al. In-depth phenotypic characterization of multicellular tumor spheroids: Effects of 5-Fluorouracil. PLOS ONE. 2017; 12(11):e0188100. doi: 10.1371/journal.pone.0188100]. Briefly, MCTS were formed using HTC-116 cell line in Ultra Low Attachment (ULA) 96 wells Round-Bottom plate (Greiner bio-one) to avoid cell-substrate attachment. The cells were trypsinized and were counted using a Malassez grid in order to obtain 2,400 cells per milliliter. This concentration of cells (i.e., 480 cells per well in a volume of 200 μL) was chosen in order to obtain a single spheroid per well, with a spheroid diameter at the end of the experimentation not exceeding 500 μm. The plate was centrifuged for 5 minutes at 1,200 g at room temperature to initiate the formation of spheroids. The plate was placed in the incubator under agitation at 37° C. and 5% CO2 during the whole experiment. At the end of the first day after seeding, 100 μL of culture medium was added to ensure proper 3D growth. […] The treatment was renewed during 3 days. Results are shown on FIGS. 4 to 6.
Blank NP were also used to assess nonspecific toxicity that could arise from the system. MCTS were monitored at day 0, 1, 2, 3, 4, and 7 day post treatment. Eight spheroids (n=8) were probed at each concentration (5, 25 and 50 μM). A ring of detaching cells appeared spontaneously after one day of treatment. The spheroids were transferred into new well plates to eliminate mechanically this uncohesive peripheral cell layer and to renew the drug and culture medium. Therefore, the reduction in volume monitored during treatment arose from a loss of viability as well as from a loss of cohesiveness.
We performed edge detection using a sobel threshold for each spheroid using the Image J software. The resulting binary images were fitted to an ellipse of major (LM) and minor (Lm) axes using the ImageJ “Analyse Particles” plugins. From this, a mean diameter was calculated, D=(LM+Lm)/2. The volume V was then determined assuming that the spheroids are spherical V=πD3/6. Results are shown on FIG. 7.
The volume of MCTS was evaluated from phase contrast microscopy images as a readout of cytotoxic effect. The data reported in FIGS. 4-6 represent normalized MCTS volume for different treatments with respect to the control volume (MCTS not treated). Three different drug concentrations were tested: 5, 25 and 50 μM.

[3] = clinical studies, end of a 2-hr infusion; cited from earlier work

For “(R,R)-1,2-diaminocyclohexane(ethanedioato-O,O)platinum [Oxaliplatin]”, which IC50 (B6KPC3 cells) is on record?
Its IC50 is 23 µM.

And the IC50 (HT-29 cells)?
Its IC50 is 74 µM.

And the AUMC [1]?
Its AUMC is 65.1 ± 23.8 hr*hr*mg/L.

And the “K12 (rate constant central to peripheral compartment)” value [1]?
Its value is 4.14 ± 0.72 h⁻¹.

What about the “K21 (rate constant peripheral to central compartment)” value [1] of the same compound?
The value was 0.398 ± 0.054 h⁻¹.

And the Q [1]?
Its Q is 0.060 ± 0.008 L/h.

And the Vc [1]?
The Vc was 0.014 ± 0.004 L.

And the Vp [1]?
Its Vp is 0.15 ± 0.02 L.

What about the Vss [1] of the same compound?
Its Vss is 0.165 L.

And the “K21 (rate constant peripheral to central compartment)” value ([1]; listed as oxaliplatin)?
The value was 0.398 h⁻¹.

And the “K12 (rate constant central to peripheral compartment)” value ([1]; listed as oxaliplatin solution)?
Its value is 4.14 h⁻¹.

What about the Vc ([1]; listed as oxaliplatin solution) of the same compound?
The Vc was 0.014 L.

And the Vp ([1]; listed as oxaliplatin solution)?
The Vp was 0.150 L.

And the AUC ([1]; plasma)?
The AUC was 3.76 µg·h/mL.

What about the “Alpha_HL (distribution half-life)” value ([1]; plasma) of the same compound?
Its value is 8.1 min.

And the CL ([1]; plasma clearance)?
Its CL is 0.010 L/h.

What about the “Beta_HL (elimination half-life)” value ([1]; plasma, listed as oxaliplatin solution) of the same compound?
The value was 13.6 h and 13 h.

And the Cmax ([1]; time 0 hr)?
Its Cmax is 2.48 µg/mL.

What about the IC50 (A549 cells) of the same compound?
The IC50 was 11 µM.

What about the IC50 (A549 cells; listed as oxaliplatin reference solution) of the same compound?
The IC50 was 12 µM.

And the “size reduction (%) of spheroids compared to control spheroids at the same day” value (“size reduction (%) of spheroids” for short) ([2]; 5 μM, Day 0)?
Its value is −1.21%.

And the “size reduction (%) of spheroids” value ([2]; 5 μM, Day 1)?
The value was 4.52%.

What about the “size reduction (%) of spheroids” value ([2]; 5 μM, Day 2) of the same compound?
The value was 15.86%.

And the “size reduction (%) of spheroids” value ([2]; 5 μM, Day 3)?
The value was 24.88%.

And the “size reduction (%) of spheroids” value ([2]; 5 μM, Day 4)?
Its value is 28.73%.

What about the “size reduction (%) of spheroids” value ([2]; 25 μM, Day 0) of the same compound?
The value was 0.59%.

What about the “size reduction (%) of spheroids” value ([2]; 25 μM, Day 1) of the same compound?
Its value is 16.06%.

And the “size reduction (%) of spheroids” value ([2]; 25 μM, Day 2)?
Its value is 29.27%.

What about the “size reduction (%) of spheroids” value ([2]; 25 μM, Day 3) of the same compound?
Its value is 40.23%.

And the “size reduction (%) of spheroids” value ([2]; 25 μM, Day 4)?
Its value is 45.93%.

What about the “size reduction (%) of spheroids” value ([2]; 25 μM, Day 7) of the same compound?
The value was 52.04%.

What about the “size reduction (%) of spheroids” value ([2]; 50 μM, Day 0) of the same compound?
The value was 0.62%.

And the “size reduction (%) of spheroids” value ([2]; 50 μM, Day 1)?
Its value is 16.78%.

What about the “size reduction (%) of spheroids” value ([2]; 50 μM, Day 2) of the same compound?
The value was 32.53%.

What about the “size reduction (%) of spheroids” value ([2]; 50 μM, Day 3) of the same compound?
The value was 44.17%.

What about the “size reduction (%) of spheroids” value ([2]; 50 μM, Day 4) of the same compound?
Its value is 48.93%.

And the “size reduction (%) of spheroids” value ([2]; 50 μM, Day 7)?
The value was 71.67%.

And the “appearance of treated spheroids on photographs” value ([2]; 50 μM, FIG. 7)?
The value was “few cells are still present and formed aggregates”.

And the “administered platinum present in the systemic circulation” value [3]?
Its value is 15%.

For `NC1CCCCC1N.[Pt+2]` (stereo not shown) [DACHPt, di-aqua(1,2-diaminocyclohexane)platinum(II)], which IC50 (HT-29 cells) is on record?
The IC50 was 39 µM.
